# Legend:
# [1] = system: C. albicans yeast; assay: Antimicrobial activity / MIC against C. albicans growing in yeast-forming conditions; format: cell-based, C. albicans SC5314; details: for MIC: 24 h; for MIC / MIC C. albicans Yeast: MIC100, lowest concentration inhibiting 100% of growth, 24 hrs incubation; for IC50: Candida albicans, −log IC50 against C. albicans, training set of 3D QSAR, read-out: pIC50 Experimental (converted)
# Procedure: (§1) Collections of bacterial and fungal strains were obtained from the laboratory of Dr. Ibrahim at Harbor-UCLA medical center, Torrance, Calif. The bacterial strains used in this study were the Gram-negative bacterium Escherichia coli and the Gram-Positive bacterium methicillin-resistant Staphylococcus aureus (MRSA) LAC300. All bacterial strains were cultured on sterile Luria-Bertani medium (LB). The fungal strain used in this study was C. albicans SC5314. C. albicans was inoculated into sterile yeast potato dextrose broth (YPD) and incubated for 24 h at 37° C. (This was used as an initial culture for all studies described), and incubated in two different media, Yeast Nitrogen Base (YNB) broth or Roswell Park Memorial Institute medium (RPMI-1640). Polymyxin B (colistin), vancomycin and Ketoconazole were purchased from (Sigma-Aldrich).
# (§2) The antimicrobial activity of compounds SR1-8 on agar plates, liquid broth media and MIC were measured according to modified Clinical and Laboratory Standards Institute (CLSI). Briefly, 0.1 mL containing 10^5 CFU/mL was spread on Luria-Bertani (LB) agar plates. The plates were then incubated at 37° C. for […] with filter discs (8 mm diameter) saturated with different dilutions of the compounds (1-400 μg/mL). The inhibition zones (mm) were measured by determining the diameter of the clear area. Similarly, the activity in liquid media was measured by incubating the aforementioned concentrations of the compounds into LB broth media inoculated with 10^5 CFU/mL in 96-well microplates at 37° C. for 24 h. The turbidity representing the microbial growth was measured by microplate reader (DYNEX technologies) at OD600. […] Each test was performed in triplicate. Ketoconazole, colistin and vancomycin were employed as positive controls against C. albicans, E. coli and S. aureus bacteria, respectively. Cultures without the compounds or antimicrobials were employed as negative control.
# [2] = system: C. albicans hyphae / biofilm; assay: Inhibition of Candida biofilm (hyphae) formation, microtiter plate MTT assay; format: cell-based, C. albicans SC5314; details: for MIC: MIC100 for biofilm (hyphal) formation, 24 hrs incubation, RPMI-1640, 37° C.; for inhibition at 10 µg/mL: 10 μg/mL, hyphae growth conditions
# Procedure: as §1
# The MICs for cells forming biofilm were determined by a microtiter plate assay. Briefly, a 96-well polystyrene microtiter plate was seeded with 200 μL of RPMI-1640 containing 10^6 C. albicans cells in the presence of the compound of interest at concentration range of 1-100 μg/mL. After 24 h of incubation at 37° C., the biofilms were washed and the fungal viability was analyzed using 3-(4,5-dimethylthiazol-2-yl)-2,5-diphenyl tetrazolium bromide (MTT) (Sigma) and the final absorbance was measured at 540 nm. The assay was performed in triplicate and repeated three times. The MIC of the compounds causing 100% inhibition of C. albicans biofilm formation was determined by measuring the metabolic activity of biofilm compared to solvent control.
# [3] = system: E. coli; assay: Antimicrobial activity / MIC against E. coli; format: cell-based, Escherichia coli; details: MIC100, 24 hrs incubation; for MIC: Escherichia coli, read-out: MIC Bacteria E. Coli
# Procedure: as §1, §2
# [4] = system: S. aureus; assay: Antimicrobial activity / MIC against S. aureus; format: cell-based, methicillin-resistant Staphylococcus aureus (MRSA) LAC300; details: Staphylococcus aureus; MIC100; 24 hrs incubation; read-out: MIC Bacteria S. aureus
# Procedure: as §1, with “Polymyxin B (colistin), vancomycin and Ketoconazole were purchased from (Sigma-Aldrich).” left out
# The antimicrobial activity of compounds SR1-8 on agar plates, liquid broth media and MIC were measured according to modified Clinical and Laboratory Standards Institute (CLSI). […] The inhibition zones (mm) were measured by determining the diameter of the clear area. Similarly, the activity in liquid media was measured by incubating the aforementioned concentrations of the compounds into LB broth media inoculated with 10^5 CFU/mL in 96-well microplates at 37° C. for 24 h. The turbidity representing the microbial growth was measured by microplate reader (DYNEX technologies) at OD600. […]
# [5] = system: human erythrocytes
# Procedure: DPBS-washed erythrocytes (3×10^6 cells per well) were incubated in 96-well plate with 200 μg/mL of SR compounds at 37° C. for 30 min. The hemoglobin released from lysed erythrocytes was measured using micro-plate reader at 405 nm. The absorbance value for each sample was subtracted from the absorbance value of cells treated only with washing buffer and the hemolytic activity (%) was calculated. The data display the mean±standard error (SEM) of three independent measurements.
# The cytotoxic assay of SR compounds was measured by quantifying the amount of hemoglobin released by lysis of human erythrocytes as previously described. Briefly, fresh whole blood from healthy individual was collected by venipuncture and the blood was immediately centrifuged at 500 g for 10 min using benchtop centrifuge (Eppendorf 5804R Refrigerated Benchtop). […] The plate was incubated at 37° C. for 30 min, and the intact cells were precipitated by centrifugation at 500 g for 10 min at 4° C. and the supernatants (125 μL) were transferred to a flat-bottom 96-well plate to measure hemoglobin release by absorbance at 405 nm using a microplate reader. The absorbance values for each sample were subtracted from the absorbance value obtained for washing buffer-treated cells and the hemolytic activity (%) was calculated. […]
Compound,MIC [1] [µg/mL],IC50 [1] [µM],MIC C. albicans Yeast [1] [µg/mL],MIC [2] [µg/mL],MIC [3] [µg/mL],MIC [4] [µg/mL],melting point [°C],inhibition at 10 µg/mL [2] [%],MIC Bacteria E. Coli [3] [µg/mL],erythrocyte hemolysis (positive control) [5] [%]
"CC(=O)N1CCN(c2ccc(OCC3COC(Cn4ccnc4)(c4ccc(Cl)cc4Cl)O3)cc2)CC1 (centres unmarked) [Ketoconazole, reference compound]",3,,,,,,,,,
"COc1cc(C=C2SC(=S)NC2=O)ccc1OCc1ccc(C)cc1 [SR1, 5-[3-Methoxy-4-(4-methyl-benzyloxy)-benzylidene]-2-thioxo-thiazolidin-4-one]",400,1080,>400 ± 15,20 ± 5,100 ± 10,> 400,205 to 207,,,
"Cc1ccc(COc2ccc(C=C3SC(=S)NC3=O)cc2Br)cc1 [SR2, 5-[3-Bromo-4-(4-methyl-benzyloxy)-benzylidene]-2-thioxo-thiazolidin-4-one]",200,475,200 ± 15,10 ± 2,100 ± 10,,217 to 219,,,
"Cc1ccc(COc2ccc(C=C3SC(=S)NC3=O)cc2Cl)cc1 [SR3, 5-[3-Chloro-4-(4-methyl-benzyloxy)-benzylidene]-2-thioxo-thiazolidin-4-one]",400,1060,>400 ± 10,20 ± 5,400 ± 10,,225 to 227,,,
"COc1cc(C=C2SC(=S)NC2=O)ccc1OCc1ccc(C(F)(F)F)cc1 [SR4, 5-[3-Methoxy-4-(4-trifluoromethyl-benzyloxy)-benzylidene]-2-thioxo-thiazolidin-4-one]",200,456,200 ± 10,20 ± 5,100 ± 10,,209 to 211,50,,
"O=C1NC(=S)SC1=Cc1ccc(OCc2ccc(C(F)(F)F)cc2)c(Br)c1 [SR5, 5-[3-Bromo-4-(4-trifluoromethyl-benzyloxy)-benzylidene]-2-thioxo-thiazolidin-4-one]",200,470,200 ± 15,20 ± 3,400 ± 20,,210 to 212,,,
"O=C1NC(=S)SC1=Cc1ccc(OCc2cccc(C(F)(F)F)c2)c(Br)c1 [SR6, 5-[3-Bromo-4-(3-trifluoromethyl-benzyloxy)-benzylidene]-2-thioxo-thiazolidin-4-one]",125,264,125 ± 10,10 ± 5,400 ± 10,,235 to 237,50,,
"COc1cc(C=C2SC(=S)NC2=O)ccc1OCc1cccc(C(F)(F)F)c1 [SR7, 5-[3-Methoxy-4-(3-trifluoromethyl-benzyloxy)-benzylidene]-2-thioxo-thiazolidin-4-one]",125,264,125 ± 10,10 ± 3,100 ± 5,,199 to 201,90,,
"O=C1NC(=S)SC1=Cc1ccc(OCc2cccc(C(F)(F)F)c2)c(Cl)c1 [SR8, 5-[3-Chloro-4-(3-trifluoromethyl-benzyloxy)-benzylidene]-2-thioxo-thiazolidin-4-one]",125,294,125 ± 10,20 ± 5,100 ± 10,,224 to 226,50,,
Colistin [reference compound],,,,,,,,,5,
Triton X-100,,,,,,,,,,100

# Reference: patent publication US11292776B2, “Small molecule inhibitors of fungal hyphae and biofilm formation” (University of Sharjah, priority 2019, dated 2022)
